Measurements taken from patent US12071438B2, “Crystal forms of an ALK2 inhibitor” (Keros Therapeutics, Inc., priority 2018, dated 2024).

Tests used:
Assay type in all cases: physicochemical
[1] = Dynamic vapor sorption/desorption (DVS); settings: for hygroscopicity by DVS / DVS weight gain and loss: 25° C.; for hygroscopicity by DVS: 0-95% RH; for DVS weight gain and loss: adsorption 0-95% RH, desorption to 0% RH
Experimental: (§1) Dynamic vapor sortion/desportion (DVS) analysis was conducted with a Hiden Isochema, IGAsorp, s/n IGSA 126. Samples were loaded in to a tared basket on the instrument and dried for 1 hour at 40° C. Samples were then analyzed at 25° C. with the following percent relative humidity (% RH) steps: Adsorption (% RH): 0.0, 10.0, 20.0, 30.0, 40.0, 50.0, 60.0, 70.0, 80.0, 90.0, 95.0, Desorption (% RH): 90.0, 80.0, 70.0, 60.0, 50.0, 40.0, 30.0, 20.0, 10.0, 0.0.

XRPD analysis after DVS = settings: post-DVS
Experimental: X-ray powder diffraction (XRPD) patterns were collected on a Bruker D8 diffractometer using Cu Kα radiation (40 kV, 40 mA), θ-2θ goniometer and divergence of 0.6 mm and receiving slits, and a Lynxeye detector. The instrument is performance checked using a certified Corundum standard (NIST 1976). The software used for data collection was Diffrac Plus XRD Commander v2.6.1 and the data were analyzed and presented using Materials Data Jade Software v 9.7.0. Samples were prepared by transferring 2 to 50 mg of sample to a zero background holder coated with a thin layer of petroleum jelly and leveled with a glass plate and analyzed at ambient temperature. The sample was rotated in its own plane during analysis.
as §1

[2] = Form A and Form B competitive slurries (thermodynamically stable polymorph)
Experimental: To determine the thermodynamically stable polymorph between anhydrous Forms A and B, competitive slurries were conducted in three different solvent systems: ethanol, tetrahydrofuran, and 2-butanone (MEK)/water (95:5). Ethanol and tetrahydrofuran were chosen based on the solubility of the material. MEK was chosen as a potential process solvent and water was added to boost the solubility.
Thus, additional competitive slurries were conducted in three additional solvent systems: ethanol/heptane (1:5), ethyl acetate/water (97:3), and isopropanol/water (99:1). The ethanol/heptane system was evaluated at −15° C., 5° C., ambient (RT), and 40° C. The water containing systems were only evaluated at ambient temperature. The slurries were conducted for 7 days instead of 5 days, as done in the above slurries. Form D was also included in the competitive slurries containing water.

[3] = 97% RH stress in polymorph screening study; settings: RT, no solvent

Structure (SMILES) | hygroscopicity by DVS [1] | DVS weight gain and loss [1] | XRPD after DVS analysis (form change) (XRPD analysis after DVS) | other results
COc1cc2c(-c3cnn4cc(N5CCC(N6CCN(C)CC6)CC5)cnc34)ccnc2cc1F [compound of Formula I free base, 7-fluoro-6-methoxy-4-(6-(4-(4-methylpiperazin-1-yl)piperidin-1-yl)pyrazolo[1,5-a]pyrimidin-3-yl)quinoline] | non-hygroscopic | 0.5% | No change | –
COc1cc2c(-c3cnn4cc(N5CCC(N6CCN(C)CC6)CC5)cnc34)ccnc2cc1F [Form A] | hygroscopic | 38% | becomes highly disordered and converts to the hydrate, Form C | hygroscopicity by DVS below 80% RH ([1]; below 80% RH): non-hygroscopic; polymorph stability over time (competitive slurries) ([2]; 40° C. down to −15° C., 7 days versus 5 days): most stable polymorph; thermodynamic stability at low water activity ([2]; low water activity (99:1 IPA/water)): most thermodynamically stable
COc1cc2c(-c3cnn4cc(N5CCC(N6CCN(C)CC6)CC5)cnc34)ccnc2cc1F | – | – | – | XRPD Result [3]: Form C,
COc1cc2c(-c3cnn4cc(N5CCC(N6CCN(C)CC6)CC5)cnc34)ccnc2cc1F [Form C] | – | – | – | thermodynamic stability at high water activity ([2]; high water activity (97:3 EtOAc/water)): more favored
COc1cc2c(-c3cnn4cc(N5CCC(N6CCN(C)CC6)CC5)cnc34)ccnc2cc1F [Form B] | slightly hygroscopic | 12% | consistent with Form B | moisture gain onset in DVS ([1]; low relative humidities): begins immediately even at low relative humidities
